# Reference: patent US20020107401A1, “Production of phosphonopyrazoles” (MONSNTO TECHNOLOGY LLC., priority 2000, published 2002)
# Tested on: wheat variety 'OSLO'
# Experiment: Chemical hybridizing agent assay for male sterility (male gametocidal activity), foliar spray, seed counts
# Type: in vivo
# Method: The compounds of structure 3 and analogs are applied at a rate of 50-1000 μg/plant to cause pollen sterility. The male gametocidal activity is determined on the wheat variety ‘OSLO’, a double-dwarf hard red spring wheat. The wheat seed is planted to a depth of 0.5 to 1 inch (1-2.5 cm) in a 6-inch long (15 cm) conetainer (a cone shaped container, one seed per conetainer). The conetainers are filled with Metromix 200 potting soil supplemented with a slow release fertilizer, Osmocote and Sierra combined at 93 g/cu ft soil for a NPK of 31-20-24. Micromax with micronutrients is added at 17 g/cu ft rate. Fertilizer supplier is Hummerts, Earth City, Mo. 63045. The RLC-4 conetainers are 1×6 inch (2.5×15 cm) with a capacity of 4 cu in. (Stuewe & Sons, Inc., Corvallis, Oreg., 97333-9461). These are loaded into racks of 100 that occupy a 1.0 ft by 1.0 ft area. After seeding, the racks are placed in growth chambers with 14/10 hour day/night cycle at 18° C. These chambers are equipped with metal halide lamps that deliver approximately 300 μE/m^2/sec. Humidity is maintained at 50%, and plants are watered as needed. Approximately six weeks after seeding, wheat plants are selected for chemical application at or just prior to flag-leaf emergence from the boot (Feekes Scale 7.5-8.0) (Large, 1954. Plant Pathology 3:128-129). Plants are placed in a rack containing cardboard dividers to prevent each from being cross contaminated by an adjacent spray. The following procedures are used to evaluate the activity of the compounds of the invention for inducing male sterility in cereals. The plant heights vary and as uniformity is required for chemical application, the top 0-10 cm are removed by excision, such that the plant height is flush with the top of the divider. Prior to application, a 50 mL solution of DMSO (dimethylsulfoxide) containing the chemical hybridizing agent is diluted with 150 mL of water containing 1% SILWET L-77 surfactant (Witco Corp., Greenwich, Conn. 06831-2559) plus 2% humectant (glycerin, supplied by VWR Scientific Products Co.). The formulated chemicals are applied foliarly as an atomized spray onto the plants. After application, the plants are moved into growth chambers and allowed to grow until the heads emerge from the boot. Prior to anther extrusion (approximately 10 to 14 days after treatment), the plants are placed back into dividers in order to isolate the seed heads and to prevent cross-pollination. The plants are moved to a greenhouse, which has similar environmental conditions as the growth chambers. Approximately one week later (3 weeks after treatment (WAT) and at anther extrusion), open head morphology ratings are initiated. Plants are rated four times over a period of eight days (Table 2). The chemical hybridizing agent Genesis® (a registered Trade Mark of the Monsanto Co) is used as the positive control and for comparative purposes as to the rate of application and the efficacy as determined by percent sterility. The negative control is treatment of the wheat plants with the compounds making up the formulation of surfactant and humectant without the chemical compositions being assayed as chemical hybridizing agents. The data in Table 2 is expressed as % Sterility=(1-(Ave. normalized seed counts of sample/Ave. normalized seed counts of controls))*100 with the treatments comprising foliar application and rate titration at Feekes stage 8, across five replicates. Approximately two weeks after open head ratings are completed (six WAT), seed counts are collected.
# [1] = Table 2, rate 50 μg/plant, foliar, Feekes 8
# [2] = Table 2, rate 125 μg/plant, foliar, Feekes 8
# [3] = Table 2, rate 250 μg/plant, foliar, Feekes 8
# [4] = Table 2, rate 500 μg/plant, foliar, Feekes 8
# [5] = Table 2, rate 1000 μg/plant, foliar, Feekes 8
# [6] = Table 2, rate 50 μg/plant, foliar, Feekes 6
# [7] = Table 2, rate 125 μg/plant, foliar, Feekes 6
# [8] = Table 2, rate 250 μg/plant, foliar, Feekes 6
# [9] = Table 2, rate 500 μg/plant, foliar, Feekes 6
Molecule,Sterility (%) [1],Sterility (%) [2],Sterility (%) [3],Sterility (%) [4],Sterility (%) [5],Sterility (%) [6],Sterility (%) [7],Sterility (%) [8],Sterility (%) [9],further results
"COP(=O)(OC)c1cnn(-c2ccccc2Cl)c1O [Compound 3c, Dimethyl [1-(2-chlorophenyl)-5-hydroxy-1H-pyrazol-4-yl]phosphonate]",25%,29%,18%,53%,36%,–,–,–,–,–
"COP(=O)(OC)c1cnn(-c2ccc(Cl)cc2)c1O [Compound 3a, Dimethyl [1-(4-chlorophenyl)-5-hydroxy-1H-pyrazol-4-yl]phosphonate]",39%,34%,79%,92%,–,27%,0%,0%,49%,–
"COP(=O)(OC)c1cnn(C2CCCCC2)c1O [Compound 3e, Dimethyl [1-cyclohexyl-5-hydroxy-1H-pyrazol-4-yl]phosphonate]",15%,3%,17%,26%,44%,–,–,–,–,–
"COP(=O)(OC)c1cnn(-c2ccc(Cl)cc2)c1OCc1ccccc1[N+](=O)[O-] [Compound 4b, Dimethyl{1-(4-chlorophenyl)-5-[(2-nitrobenzyl)oxy]-1H-pyrazol-4-yl}phosphonate]",16%,0%,57%,94%,–,0%,0%,0%,0%,–
"COP(=O)(OC)c1c(-c2ccccc2)nn(-c2cc(C)cc(C)c2)c1O [Compound 10b, Dimethyl[1-(3,5-dimethylphenyl)-5-hydroxy-3-phenyl-1H-pyrazol-4-yl]phosphonate]",5%,0%,11%,33%,45%,–,–,–,–,–
"O=P(O)(O)C1=CNN(c2ccc(Cl)cc2)C1O (stereo not drawn) [Compound 3j, 2-(4-Chlorophenyl)-3-hydroxy-1H-pyrazol-4-yl phosphonic acid]",31%,13%,0%,12%,–,4%,7%,0%,35%,–
"CCn1cc(P(=O)(OC)OC)c(=O)n1-c1cc(C)cc(C)c1 [Compound 5c, Dimethyl[2-(3,5-dimethylphenyl)-2,3-dihydro-1-ethyl-3-oxo-pyrazol-4-yl]phosphonate]",–,–,–,–,–,–,–,–,–,"Sterility (%) (Table 4, rate 50 μg/plant): 8%; Sterility (%) (Table 4, rate 125 μg/plant): 1%; Sterility (%) (Table 4, rate 250 μg/plant): 16%; Sterility (%) (Table 4, rate 500 μg/plant): 48%; Sterility (%) (Table 4, rate 1000 μg/plant): 31%"
"COP(=O)(OC)c1c(-c2ccccc2)nn(-c2ccc(Cl)cc2)c1O [Compound 10a, Dimethyl [1-(4-chlorophenyl)-5-hydroxy-3-phenyl-1H-pyrazol-4-yl]phosphonate]",1%,0%,27%,18%,45%,–,–,–,–,–
methyl potassium[4-chlorophenyl-3-hydroxy-1H-pyrazol-4-yl]phosphonate [Compound 3m],28%,20%,16%,15%,–,23%,0%,31%,43%,–
"CCn1cc(P(=O)(OC)OC)c(=O)n1-c1ccc(Cl)cc1 [Compound 5a, Dimethyl [2-(4-chlorophenyl)-2,3-dihydro-1-ethyl-3-oxo-pyrazol-4-yl]phosphonate]",–,–,–,–,–,–,–,–,–,"Sterility (%) (Table 4, rate 50 μg/plant): 11%; Sterility (%) (Table 4, rate 125 μg/plant): 26%; Sterility (%) (Table 4, rate 250 μg/plant): 66%; Sterility (%) (Table 4, rate 500 μg/plant): 29%; Sterility (%) (Table 4, rate 1000 μg/plant): 10%"
"COP(=O)(OC)c1cnn(-c2ccc(F)cc2)c1O [Compound 3b, Dimethyl [1-(4-fluorophenyl)-5-hydroxy-1H-pyrazol-4-yl]phosphonate]",23%,30%,90%,91%,98%,–,–,–,–,–
"COP(=O)(OC)c1cnn(-c2ccc(Br)cc2)c1O [Compound 3d, Dimethyl [1-(4-bromophenyl)-5-hydroxy-1H-pyrazol-4-yl]phosphonate]",0%,0%,17%,15%,54%,–,–,–,–,–
"COP(=O)(OC)c1cnn(-c2ccc(Cl)cc2)c1OCc1ccc(Cl)cc1 [Compound 4a, Dimethyl{1-(4-Chlorophenyl)-5-[(4-chlorobenzyl)oxy]-1H-pyrazol-4-yl}phosphonate]",48%,80%,93%,93%,–,0%,0%,9%,34%,–
"CCCCn1cc(P(=O)(OC)OC)c(=O)n1-c1cc(C)cc(C)c1 [Compound 5d, Dimethyl[1-butyl-2-(3,5-dimethylphenyl)-2,3-dihydro-3-oxo-pyrazol-4-yl]phosphonate]",–,–,–,–,–,–,–,–,–,"Sterility (%) (Table 4, rate 50 μg/plant): 29%; Sterility (%) (Table 4, rate 125 μg/plant): 0%; Sterility (%) (Table 4, rate 250 μg/plant): 28%; Sterility (%) (Table 4, rate 500 μg/plant): 24%; Sterility (%) (Table 4, rate 1000 μg/plant): 41%"
"COP(=O)([O-])c1cnn(-c2cc(C)cc(C)c2)c1O.[K+] [Compound 3l, methyl potassium[2-(3,5-dimethylphenyl)-3-hydroxy-1H-pyrazol-4-yl]phosphonate]",12%,28%,24%,39%,–,0%,17%,39%,54%,–
"COP(=O)(OC)c1cn(-c2ccc(Br)cc2)nc1O [Compound 8a, Dimethyl [1-(4-bromophenyl)-3-hydroxy-1H-pyrazol-4-yl]phosphonate]",–,–,–,–,–,–,–,–,–,"Sterility (%) (Table 3, rate 50 μg/plant): 12%; Sterility (%) (Table 3, rate 125 μg/plant): 0%; Sterility (%) (Table 3, rate 250 μg/plant): 44%; Sterility (%) (Table 3, rate 500 μg/plant): 25%; Sterility (%) (Table 3, rate 1000 μg/plant): 15%"
"COP(=O)(OC)c1cn(C2CCCCC2)n(-c2ccc(Cl)cc2)c1=O [Compound 5b, Dimethyl[2-(4-chlorophenyl)-1-cyclohexyl-2,3-dihydro-3-oxo-pyrazol-4-yl]phosphonate]",–,–,–,–,–,–,–,–,–,"Sterility (%) (Table 4, rate 50 μg/plant): 0%; Sterility (%) (Table 4, rate 125 μg/plant): 14%; Sterility (%) (Table 4, rate 250 μg/plant): 20%; Sterility (%) (Table 4, rate 500 μg/plant): 23%; Sterility (%) (Table 4, rate 1000 μg/plant): 62%"
"Cc1cc(C)cc(-n2ncc(P(=O)([O-])O)c2O)c1.[K+] [Compound 3n, hydrogen potassium[2-(3,5-dimethylphenyl)-3-hydroxy-1H-pyrazol-4-yl]phosphonate]",15%,11%,4%,20%,–,7%,7%,10%,31%,–
